Reference: patent US8628961B2, “Small molecule antagonists of phosphatidylinositol-3,4,5-triphosphate (PIP3) and uses thereof” (Tufts University, priority 2010, dated 2014)
Read-outs that look alike come from different tables or passages of the source.

Legend:
PDK1 PH domain = PDK1 PH domain (Homo sapiens (Human), UniProt O15530); assay: FP PIP3/PDK1 PH domain binding assay; details: for IC50: 15 nM TMR-conjugated PIP3, 100 nM PDK1 PH domain, 30 min
Source text: In order to identify compounds that disrupt the interaction between PIP3 and PH domains, a high-throughput fluorescence polarization (FP)-binding assay was developed using recombinant 1-123 amino acid N-terminal fragment of human Akt1 (also referred to herein simply as Akt), encompassing the PH domain (PH123 protein), and fluorescent […] PIP3 molecule. The amino acid sequence of human Akt1 is publicly available as, for example, GenBank Accession No. NP_001014432.1 (SEQ ID NO:1), and the corresponding DNA sequence is publicly available as, for example, GenBank Accession No. NM_001014432. Briefly, 5 μM recombinant GST fusion proteins containing 1-123 a.a. N-terminal fragment of human Akt1 (PH 123) or 100 nM 441-551 a.a. region of human PDK1 were incubated with 15 nM TMR-labeled PIP3, PIP2, or PIP5 in buffer containing 50 mM Tris-HCl (pH 7.5), 150 mM NaCl, and 5 mM b-ME for 15 min at room temperature in the dark. FP values were determined using Wallac Victor 3 plate reader. For the primary screen, 50,000 diverse small molecules from Harvard Institute of Chemistry and Cell Biology were screened (iccb.med.harvard.edu). Incubations were carried out for 1 hr. For secondary assays, PIT compounds were added at various concentrations (6.25, 12.5, 25, 50, 100, 150 and 200 μM), followed by a 30 min incubation. The inhibition rates were calculated as inhibition rate=[1−(compound-treated group/control group)]×100%, and IC50 value was determined using Origin6 software (MicroCal, LLC, Northampton, Mass.).

GRP1 PH domain = GRP1 PH domain (Homo sapiens, UniProt O43739); assay: FP PIP3/GRP1 PH domain binding assay; details: 15 nM TMR-conjugated PIP3, 100 nM GRP1 PH domain, 30 min
U87MG cells = assay: cells; assay type: cell-based; details: for IC50: U87MG cells, 48 hr, ATP assay, read-out: Cell Viability IC50
Protocol: (§1) Based on the critical role of PIP3-dependent […] signaling in the regulation of cell survival, the effect of PIT-1 on the cancer cell viability was tested. Cancer cells were seeded into 96-well plates (white plates for ATP assay; black plates for fluorescent assay; clear plates for MTS assay) at the density of 5-10×10^3 cells per well in 100 μl of the appropriate media. Compounds were added at a series of concentrations and incubated for different times. For the ATP assay, a luminescence-based commercial kit (CellTiter-Glo, Promega, Madison, Wis.) was used. Thirty microliters of cell lysis/ATP detection reagent was added to each well, mixed for 10 min at room temperature, and the luminescence was measured using a Wallac Victor 3 plate reader (Perkin-Elmer, Wellesley, Mass.). For the MTS assay, a CellTiter 96 AQueous Non-Radioactive Cell Proliferation Assay Kit (Promega, Madison, Wis., USA) was used. Twenty microliters of the combined MTS/PMS solution was added into each well, incubated for 4 hr at 37° C., and the absorbance at 490 nm was measured using a Wallac Victor 3 plate reader. For the Sytox cell death assay, measuring loss of plasma membrane integrity, cells were incubated with 1 μM Sytox Green reagent (Molecular Probes, Eugene, Oreg.) for 30 min at 37° C. and the fluorescence intensity was measured using Wallac Victor 3 plate reader with excitation at 485 nm and emission at 545 nm. Next, 5 μl of 20% (v/v) Triton X-100 solution was added to each well and incubated for 1 hr at 37° C., and the signal was measured again. The ratio of values (percentage of dead cells in each well) before and after Triton X-100 treatment was calculated and normalized to the relevant controls not subjected to the cytotoxic stimuli. IC50 values were determined using Origin6 software (MicroCal, LLC, Northampton, Mass.).
To measure induction of cell death by PIT-1 derivatives, U87MG cells were incubated with PITs (1.56-300 μM) for 48 hr. Cell viability was determined using ATP assay.

Akt PH domain = Akt PH domain (Homo sapiens (Human), UniProt P31749); assay: PH domain translocation assay (GFP fusion, plasma membrane); assay type: cell-based; details: PDGF stimulation
Akt PH domain, sequence (P31749 5-108): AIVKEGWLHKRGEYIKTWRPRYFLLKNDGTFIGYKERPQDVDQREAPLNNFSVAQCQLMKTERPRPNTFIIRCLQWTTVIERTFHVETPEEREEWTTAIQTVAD
Protocol: (§2) Cells were transfected with the corresponding GFP-fusion vectors, serum starved overnight, and incubated with 100 μM PITs or PIT-1 is for 2 hr, followed by stimulation with 100 ng/ml PDGF or 250 ng/ml PMA for 5 min. The translocation was analyzed using fluorescent microscope and was quantitated by counting the number of cells with translocated PH domains in five random fields.
To begin characterizing cellular activity of PITs, a PH domain translocation assay was performed, measuring PIP3-induced association of GFP-fused PH domains with the plasma membrane. […] Varnai P et al. (1999) J Biol Chem 274:10983-9. Several PH-domain-containing proteins, which are known to bind PIP3 specifically and efficiently, were examined. […] Oikawa T et al. (2004) Nat Cell Biol 6:420-6.

Btk PH domain = Btk PH domain (Homo sapiens (Human), UniProt Q06187); assay: as above; assay type: cell-based; details: PDGF stimulation
Btk PH domain, sequence (Q06187 3-133): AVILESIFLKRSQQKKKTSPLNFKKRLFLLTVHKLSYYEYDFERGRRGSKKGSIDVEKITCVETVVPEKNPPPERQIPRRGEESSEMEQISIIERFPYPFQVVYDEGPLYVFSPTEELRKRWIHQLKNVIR
Protocol: as §2
To begin characterizing cellular activity of PITs, a PH domain translocation assay was performed, measuring PIP3-induced association of GFP-fused PH domains with the plasma membrane. This method provides useful means for monitoring status of the PH domain/PIP3 binding in the intact cells. Varnai P et al. (1999) J Biol Chem 274:10983-9. Several PH-domain-containing proteins, which are known to bind PIP3 specifically and efficiently, were examined. […] Oikawa T et al. (2004) Nat Cell Biol 6:420-6.

[1] = tested on: multiple cancer cell lines; assay: Cancer cell viability, MTS or ATP assays; assay type: cell-based; details: dose- and time-dependent
Protocol: as §1

SUM159 cells = assay: Cell polarization in wounded monolayers after PDGF; assay type: cell-based, human; details: wound healing model, 100 μM
Protocol: In order to measure cell polarization, wounds were generated in SUM159 cell monolayers, followed by serum starvation and treatment with 100 μM PIT-1, PIT-2, PIT-1i-1, or PIT-1i-2 for 2 hr. Cells were stimulated for 15 min with 100 ng/ml PDGF, fixed and stained with TRITC-phalloidin for F-actin (red), acetylated tubulin antibody (green) for microtubule organization center (MTOC), and Hoechst for nuclei (blue). Cell polarization was evaluated by analysis of the relative location of the MTOC and nucleus. […] The number of polarized cells was counted in five random fields under fluorescent microscope.

[2] = tested on: SUM159 cells transfected with VAV2 or WAVE2; assay: Wound migration of VAV- or WAVE-overexpressing cells; assay type: cell-based, human; details: PDGF, 8 hr
Protocol: SUM159 cells were transfected with VAV2 or WAVE2. Scratch wound was generated in cell monolayer, followed by treatment with PIT-1 (100 μM) in the presence of PDGF (100 ng/ml) stimulation for 8 hr. The inhibitory effect of PITs on VAV- or WAVE-induced cell migration was calculated according to the width of wound. The width of wounded cell monolayers was measured in five random fields.

PDK1 PH domain, sequence (O15530 441-551): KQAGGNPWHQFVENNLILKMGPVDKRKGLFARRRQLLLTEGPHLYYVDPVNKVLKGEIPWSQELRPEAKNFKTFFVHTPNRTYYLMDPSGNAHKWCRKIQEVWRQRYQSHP

## O=C(NC(=S)Nc1cc([N+](=O)[O-])cc(Cl)c1O)c1ccccc1 [PIT-1]
PDK1 PH domain
  IC50: 66.7 ± 3.5 µM
PDK1 PH domain; FIG. 4
  inhibition of binding of PIP3 to the PH domain of PDK1: inhibited binding of PIP3 to the PH domain of PDK1
GRP1 PH domain
  IC50: 40.3 ± 2.8 µM
U87MG cells
  killing of U87MG cells compared with LY294002: more pronounced than that by the PI3K inhibitor LY294002
U87MG cells; Homo sapiens, U-87 MG
  IC50: 39.9 ± 3.2 µM
Akt PH domain
  plasma membrane translocation of Akt PH domain: significantly inhibited the translocation
Btk PH domain
  plasma membrane translocation of Btk PH domain: significantly inhibited the translocation
[1]
  viability of multiple cancer cell lines: reduced viability of multiple cancer cell lines
SUM159 cells
  cell polarization and lamellipodia formation induced by PDGF: effective at preventing cell polarization and lamellipodia formation
[2]
  inhibition of migration in VAV- and WAVE-overexpressing cells compared to control cells: larger degree of inhibition of cell migration

## O=C(NC(=O)c1ccccc1)Nc1cc([N+](=O)[O-])cc(Cl)c1O [PIT-1i-1, reference compound]
PDK1 PH domain
  IC50: > 200 µM
GRP1 PH domain
  IC50: > 200 µM
U87MG cells
  IC50: > 200 µM
Akt PH domain
  plasma membrane translocation of Akt PH domain: inactive
Btk PH domain
  plasma membrane translocation of Btk PH domain: inactive
[1]
  viability of multiple cancer cell lines: did not induce loss of viability
SUM159 cells
  cell polarization and lamellipodia formation induced by PDGF: failed to prevent cell polarization
[2]
  inhibition of migration in VAV- and WAVE-overexpressing cells compared to control cells: lacked activity

## COc1c(Cl)cc([N+](=O)[O-])cc1NC(=S)NC(=O)c1ccccc1 [PIT-1i-2]
PDK1 PH domain
  IC50: > 200 µM
GRP1 PH domain
  IC50: > 200 µM
U87MG cells
  IC50: > 200 µM
Akt PH domain
  plasma membrane translocation of Akt PH domain: inactive
Btk PH domain
  plasma membrane translocation of Btk PH domain: inactive
[1]
  viability of multiple cancer cell lines: did not induce loss of viability
SUM159 cells
  cell polarization and lamellipodia formation induced by PDGF: failed to prevent cell polarization
[2]
  inhibition of migration in VAV- and WAVE-overexpressing cells compared to control cells: lacked activity
